Data on 24 compounds can be found in ChEMBL document CHEMBL1136592, “Orally efficacious NR2B-selective NMDA receptor antagonists” (Bioorg Med Chem Lett, 2003).

Molecules are shown by their SMILES.

Series [1] addresses T1, Glutamate receptor ionotropic, NMDA 2B (Homo sapiens, UniProt Q05586+Q13224). As to the kind of experiment: Inhibition of the response to NMDA glutamate/glycine receptor NR2B subtype was determined using FLIPR assay.
Series [2] concerns the target T1, Glutamate receptor ionotropic, NMDA 2B. As to the kind of experiment: Displacement of NMDA receptor-specific [3H]ifenprodil binding to recombinant human NMDA receptor, NR2B subtype expressed in L cells. The format is cell-based.
The nature of series [3]: Bioavailability in rat. It is filed as ADME, organism-based. The conditions noted are these: in vivo.
A short description of series [4]: Half life period in rat. It is filed as ADME, organism-based. The conditions noted are these: in vivo.
For series [5], the target named is Glutamate receptor ionotropic, NMDA 2A (Homo sapiens, UniProt Q05586+Q12879). Description: Inhibition of the response to NMDA glutamate/glycine receptor NR2A subtype was determined using FLIPR assay.
The subject of series [6] is Rattus norvegicus. Description: Efficacy was determined by scoring behavioral responses to noxious stimuli in carrageenan-induced hyperalgesia assay in the rat after oral administration. The format is functional.

T1 sequence (Q13224 whole entry, one chain of several): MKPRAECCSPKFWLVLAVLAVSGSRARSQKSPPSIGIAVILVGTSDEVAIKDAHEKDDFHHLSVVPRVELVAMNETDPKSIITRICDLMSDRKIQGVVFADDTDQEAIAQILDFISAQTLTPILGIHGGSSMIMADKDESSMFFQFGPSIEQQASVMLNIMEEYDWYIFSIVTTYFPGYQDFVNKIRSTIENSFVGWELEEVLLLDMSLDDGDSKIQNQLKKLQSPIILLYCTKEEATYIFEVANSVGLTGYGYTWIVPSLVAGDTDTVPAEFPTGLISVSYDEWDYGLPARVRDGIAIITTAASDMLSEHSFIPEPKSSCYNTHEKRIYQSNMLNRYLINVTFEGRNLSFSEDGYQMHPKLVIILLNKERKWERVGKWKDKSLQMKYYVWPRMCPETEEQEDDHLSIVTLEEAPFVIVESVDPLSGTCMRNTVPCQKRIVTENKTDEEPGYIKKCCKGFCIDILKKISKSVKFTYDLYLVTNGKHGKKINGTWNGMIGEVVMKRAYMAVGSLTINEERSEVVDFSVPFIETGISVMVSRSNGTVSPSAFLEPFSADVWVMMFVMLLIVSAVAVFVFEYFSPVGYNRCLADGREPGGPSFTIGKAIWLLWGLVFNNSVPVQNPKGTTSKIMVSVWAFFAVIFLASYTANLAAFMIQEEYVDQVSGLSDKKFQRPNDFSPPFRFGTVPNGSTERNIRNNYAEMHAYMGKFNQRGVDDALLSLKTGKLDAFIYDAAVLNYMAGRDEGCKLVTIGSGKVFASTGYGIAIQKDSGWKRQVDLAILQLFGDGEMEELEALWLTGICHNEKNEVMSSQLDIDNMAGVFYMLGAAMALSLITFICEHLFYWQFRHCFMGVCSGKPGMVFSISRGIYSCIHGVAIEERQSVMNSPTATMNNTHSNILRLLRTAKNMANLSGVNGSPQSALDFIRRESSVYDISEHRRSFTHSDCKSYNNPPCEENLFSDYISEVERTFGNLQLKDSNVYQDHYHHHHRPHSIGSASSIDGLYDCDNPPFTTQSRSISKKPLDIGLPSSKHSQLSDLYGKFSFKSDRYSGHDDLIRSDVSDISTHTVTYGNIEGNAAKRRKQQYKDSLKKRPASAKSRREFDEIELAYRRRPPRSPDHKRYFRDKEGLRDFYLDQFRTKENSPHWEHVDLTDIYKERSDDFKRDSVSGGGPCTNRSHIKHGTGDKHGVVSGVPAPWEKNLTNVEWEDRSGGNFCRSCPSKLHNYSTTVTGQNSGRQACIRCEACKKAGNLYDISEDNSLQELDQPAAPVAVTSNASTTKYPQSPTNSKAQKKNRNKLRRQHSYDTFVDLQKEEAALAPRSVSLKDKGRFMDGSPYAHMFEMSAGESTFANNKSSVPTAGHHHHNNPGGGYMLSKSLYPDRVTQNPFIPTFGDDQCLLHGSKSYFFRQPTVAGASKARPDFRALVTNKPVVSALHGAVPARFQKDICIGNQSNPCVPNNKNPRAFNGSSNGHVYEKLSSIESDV
Chain of Glutamate receptor ionotropic, NMDA 2A (Q12879 whole entry, one chain of several): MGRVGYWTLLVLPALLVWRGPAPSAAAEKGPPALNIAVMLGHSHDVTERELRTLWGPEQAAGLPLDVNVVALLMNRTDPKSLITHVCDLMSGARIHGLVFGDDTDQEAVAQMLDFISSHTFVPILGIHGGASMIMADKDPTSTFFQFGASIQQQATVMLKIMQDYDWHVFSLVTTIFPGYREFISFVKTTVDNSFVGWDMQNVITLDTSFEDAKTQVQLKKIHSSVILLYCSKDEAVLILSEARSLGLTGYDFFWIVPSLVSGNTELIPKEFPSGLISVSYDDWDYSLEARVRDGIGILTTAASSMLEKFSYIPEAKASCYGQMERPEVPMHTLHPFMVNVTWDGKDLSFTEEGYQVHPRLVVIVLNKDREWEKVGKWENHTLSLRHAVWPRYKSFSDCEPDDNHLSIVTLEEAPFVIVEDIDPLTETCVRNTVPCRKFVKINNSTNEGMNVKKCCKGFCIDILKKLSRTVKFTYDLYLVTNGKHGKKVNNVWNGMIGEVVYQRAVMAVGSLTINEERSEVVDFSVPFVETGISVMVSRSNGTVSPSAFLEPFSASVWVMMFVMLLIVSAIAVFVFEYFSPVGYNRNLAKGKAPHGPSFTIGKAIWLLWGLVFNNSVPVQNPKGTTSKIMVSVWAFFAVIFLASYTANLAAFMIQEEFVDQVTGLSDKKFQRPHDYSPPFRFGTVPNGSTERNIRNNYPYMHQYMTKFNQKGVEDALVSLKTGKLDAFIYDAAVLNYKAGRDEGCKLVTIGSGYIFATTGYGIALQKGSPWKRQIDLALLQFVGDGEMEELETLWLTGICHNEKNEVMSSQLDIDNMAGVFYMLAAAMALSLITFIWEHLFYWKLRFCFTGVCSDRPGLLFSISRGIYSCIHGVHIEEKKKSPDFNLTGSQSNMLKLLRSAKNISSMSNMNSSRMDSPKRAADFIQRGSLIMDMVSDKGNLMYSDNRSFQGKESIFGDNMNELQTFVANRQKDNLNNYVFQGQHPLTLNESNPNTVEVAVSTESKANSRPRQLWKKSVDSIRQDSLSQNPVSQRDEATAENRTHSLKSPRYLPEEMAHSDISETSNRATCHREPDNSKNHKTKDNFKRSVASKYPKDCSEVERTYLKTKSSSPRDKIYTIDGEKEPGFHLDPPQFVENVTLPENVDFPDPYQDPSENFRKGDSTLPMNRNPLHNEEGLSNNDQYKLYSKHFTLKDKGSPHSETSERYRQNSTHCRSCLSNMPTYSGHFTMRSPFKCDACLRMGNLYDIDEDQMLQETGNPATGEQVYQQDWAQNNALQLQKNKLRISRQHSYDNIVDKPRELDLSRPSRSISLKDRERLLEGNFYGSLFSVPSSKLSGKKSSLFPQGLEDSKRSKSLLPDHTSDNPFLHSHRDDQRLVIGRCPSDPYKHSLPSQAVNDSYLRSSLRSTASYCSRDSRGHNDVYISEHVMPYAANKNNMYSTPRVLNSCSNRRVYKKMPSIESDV

As usually defined, the IC50 is the concentration that gives 50% inhibition. Low values mean greater potency, high ones weaker potency. The Ki is the equilibrium dissociation constant of an inhibitor or competing ligand from its target. `N=C(NCc1cccc(Cl)c1)c1ccc(Cl)cc1`: in series [1], the IC50 is 160 nM. Also, the Ki in series [2] was determined as 63 nM.

Usually bioavailability stands for dose-corrected exposure relative to a reference, in per cent. As a reminder, the half-life is the time needed for the level to fall by half in the phase considered. Higher therefore signals slow decline. As a reminder, the ED50 is the dose that gives a 50% effect, or the effect in half of the subjects. Compound `N=C(NCc1ccccc1OC(F)(F)F)c1ccc(Cl)c(Cl)c1` returned a bioavailability in series [3] of 31%. This compound also displayed a half-life in series [4] of 3.05 h. In addition, the figures for the IC50 in series [5] and in series [1] were more than 10000 nM and 57 nM, respectively. In addition, in series [2], the inhibition constant Ki is 12 nM. Further, it took a dose of 7.5 mg/kg to reach the 50% effect level in series [6] (ED50).

`NC(=NCc1ccccc1)c1ccc(Cl)cc1` showed a concentration for half-maximal inhibition (IC50) in series [1] of 720 nM. Besides, the Ki in series [2] came to 970 nM.

With `NC(=NCc1cccc(Cl)c1)c1ccccc1F`, the Ki in series [2] was more than 15000 nM.

As for `N=C(NCc1ccccc1Cl)c1ccc(C(F)(F)F)cc1`, in series [1], the IC50 was found to be 48 nM. In addition, the Ki in series [2] stood at 56 nM.

As to `N=C(/C=C/c1ccccc1)NCc1ccccc1`, in series [2], the Ki is 9 nM.

Compound `N=C(NCc1cccc(Cl)c1)c1ccc(F)cc1` registered an IC50 in series [1] of 450 nM. Also, the inhibitory constant (Ki) in series [2] came out at 600 nM.

The compound `NC(=NCc1cccc(Cl)c1)c1ccc(Cl)c(Cl)c1` showed a bioavailability in series [3] of 44%. Further, in series [4], the half-life was determined as 1.5 h. In addition, the half-inhibitory concentration (IC50) in series [5] was more than 10000 nM; in series [1], 110 nM. Further, in series [2], the Ki was found to be 16 nM. Further, the ED50 in series [6] came to 14 mg/kg.

The compound `Cc1cc(C)cc(C/N=C(\N)c2ccc(C(F)(F)F)cc2)c1` displayed an IC50 in series [1] of 8.7 nM. The Ki in series [2] came to 3.9 nM.

As for `N=C(NCc1cccc(Cl)c1)c1cccc(F)c1`, the Ki in series [2] is 2000 nM.

Turning to `NC(=NCc1cccc(Cl)c1)c1ccc(C(F)(F)F)cc1`, the IC50 in series [1] was found to be 32 nM. Further, in series [2], the Ki was 20 nM.

In series [1], `N=C(NCc1ccccc1)c1ccc(OC(F)(F)F)cc1` showed an IC50 of 46 nM. In addition, the Ki in series [2] turned out to be 120 nM.

In the case of `N=C(NCc1cc(Cl)cc(Cl)c1)c1ccc(OC(F)(F)F)cc1`, in series [3], the bioavailability is 68%. The same compound gave a half-life in series [4] of 7 h. For the same compound, the IC50 in series [5] is more than 10000 nM; in series [1], 24 nM. Further, the Ki in series [2] was 0.6 nM. Moreover, in series [6], the ED50 was 16 mg/kg.

In series [1], `COc1ccccc1C/N=C(\N)c1ccc(OC(F)(F)F)cc1` registered an IC50 of 4.1 nM. In addition, the inhibition constant Ki in series [2] stood at 5.7 nM.

`COc1ccc(C/N=C(\N)c2ccc(OC(F)(F)F)cc2)cc1`: the Ki in series [2] turned out to be 1100 nM.

With `COc1cccc(C/N=C(\N)c2ccc(OC(F)(F)F)cc2)c1`, the midpoint of inhibition in series [1], the IC50, lay at 9.7 nM. Moreover, the Ki in series [2] was 23 nM.

As to `NC(=NCc1ccccc1)c1ccccc1`, the Ki in series [2] was more than 15000 nM.

In turn, `N=C(NCc1cccc(C(F)(F)F)c1)c1ccc(C(F)(F)F)cc1` yielded a half-inhibitory concentration (IC50) in series [1] of 660 nM. In series [2], the inhibition constant (Ki) worked out at 700 nM.

In series [1], `NC(=NCc1cccc(Cl)c1)c1cccc(Cl)c1` returned an IC50 of 420 nM. Further, the Ki in series [2] is 800 nM.

For the compound `NC(=NCc1cccc(Cl)c1)c1ccccc1Cl`, the Ki in series [2] was determined as 3900 nM.

The compound `N=C(NCc1ccccc1)c1ccc(C(F)(F)F)cc1` had an IC50 in series [1] of 360 nM. Moreover, the Ki in series [2] came out at 480 nM.

On to `N=C(NCc1ccccc1)c1ccc(-c2ccccc2)cc1`, for which the Ki in series [2] was determined as 1800 nM.

In turn, `NC(=NCc1ccccc1C(F)(F)F)c1ccc(OC(F)(F)F)cc1` had a bioavailability in series [3] of 100%. Besides, the half-life in series [4] is 2.45 h. The IC50 is more than 10000 nM in series [5] and 47 nM in series [1]. In addition, the inhibition constant Ki in series [2] was 72 nM. In addition, in series [6], the 50% effect level (ED50) was put at a dose of 5.5 mg/kg.

For `Cc1cc(C)cc(C/N=C(\N)c2ccc(OC(F)(F)F)cc2)c1`, the bioavailability in series [3] was found to be 4%. In addition, in series [4], the half-life stood at 1.53 h. Also, the IC50 in series [5] was more than 10000 nM; in series [1], 4.2 nM. Further, the Ki in series [2] was 1.2 nM. In series [6], this compound came in with an ED50 of more than 30 mg/kg.
